From patent publication US8669254B2, “Pyridine, pyridazine, pyrimidine or pyrazine carboxamides as HDL-cholesterol raising agents” (Hoffman-La Roche Inc., priority 2010, dated 2014)
Read-outs that look alike come from different tables or passages of the source. Values belong to the molecule of their own block, whether it stands above or below them.

Experiments:
ABCA1 protein = experiment: Detection of upregulation of ABCA1 protein in cells (ApoA-I binding, high content image analysis); assay type: cell-based; conditions: THP-1 macrophage cells; for EC50: ABCA1 protein detection assay; for % increase of ABCA1 at 3 μM: compound at 3 μM, 24 hrs
Protocol: The ability of compounds of the invention to increase the level of ABCA1 protein is determined in replicate cultures of THP-1 macrophage cells in 96-well microplates. Cells are plated at an initial density of 100,000 cells/well in 100 μl medium and differentiated to adherent macrophages with the addition of PMA (100 nM) for 68 hrs in 10% fetal bovine serum, 3 μl/L of b-mercaptoethanol, RPMI-1640 medium. Then, cells are incubated with RPMI-1640 medium containing 1% FCS, 25 μg/ml acetylated LDL, for 24 hours at 37°. Following incubation with acetylated LDL, cells are washed twice with 50 μl PBS and incubated with 100 μl of RPMI-1640 medium containing the compound of interest solubilized in DMSO for an additional 24 hrs. The final DMSO concentration in presence of cells is maintained at 0.5%. ApoA-I binding assay using High Content Image Analysis is initiated by replacing with fresh medium, RPMI without Phenol Red, 0.2% BSA containing AlexaFluor®647 labeled ApoA-I for 2 h/37° C./5% CO2. Then, cells are fixed with 4% Formaldehyde in PBS (15 min, RT). Following Nuclei are stained with Hoechst solution (3 μM PBS) and Cytoplasm with Cell Mask Blue (2 μg/ml PBS), 15 min, RT. Finally the stained cells are fixed with a second round of formaldehyde treatment. Fixed stained cells are washed and kept in PBS at 4° C. and can be read immediately until one month after preparation.
The Alexa Fluor 647-labeled Apolipoprotein A-I (20 nM) was prepared as follows: Human recombinant Apolipoprotein A-I (ApoA-I) was exchanged to a buffer of 0.02 M NaHCO3 at pH 8.2 on an NAP desalting column (GE Healthcare) and brought to a concentration to 40 μM (1.13 mg/ml) by adjustment with the same buffer. The ApoA-I was fluorescently labeled by incubation with Alexa Fluor carboxylic acid succimidyl ester (Alexa Fluor 647, Invitrogen A-20006) at a 2:1 molar ratio (Alexa to ApoA-I) for 1 h under shaking at RT). The remaining unconjugated label was removed by buffer exchange to 0.02M NaHCO3 at pH 8.2.
Imaging and data collection were performed on an OPERA confocal microplate imaging reader using a 20× water immersion objective and UV360 or 405 laser to identify the cell nuclei and a 635 laser to identify the fluorescent ApoA-I. Eight fields of view are captured per well. Image capture and analysis was performed with the Acapella software. Background fluorescence detected in control wells without ApoA-I was subtracted.
Using XLfit3 program (ID Business Solutions Ltd. UK), the model 205 for Dose Response One Site is used to calculate the EC50 values. […] Particularly, the compounds of the present invention have EC50 values in a range of 0.1 μM to 3 μM.

human CB1 receptor = molecular target: T1, human CB1 receptor (Homo sapiens, UniProt P21554); experiment: CB1 receptor affinity ([3H]-CP-55,940 displacement); assay type: binding; conditions: read-out: CB1 receptor affinity [% inhibition @ 10 μM]
T1 construct: expressed in transfected cells; host or cells: human embryonic kidney (HEK) cells, Semliki Forest Virus system, membrane preparation
T1 sequence (P21554 whole entry): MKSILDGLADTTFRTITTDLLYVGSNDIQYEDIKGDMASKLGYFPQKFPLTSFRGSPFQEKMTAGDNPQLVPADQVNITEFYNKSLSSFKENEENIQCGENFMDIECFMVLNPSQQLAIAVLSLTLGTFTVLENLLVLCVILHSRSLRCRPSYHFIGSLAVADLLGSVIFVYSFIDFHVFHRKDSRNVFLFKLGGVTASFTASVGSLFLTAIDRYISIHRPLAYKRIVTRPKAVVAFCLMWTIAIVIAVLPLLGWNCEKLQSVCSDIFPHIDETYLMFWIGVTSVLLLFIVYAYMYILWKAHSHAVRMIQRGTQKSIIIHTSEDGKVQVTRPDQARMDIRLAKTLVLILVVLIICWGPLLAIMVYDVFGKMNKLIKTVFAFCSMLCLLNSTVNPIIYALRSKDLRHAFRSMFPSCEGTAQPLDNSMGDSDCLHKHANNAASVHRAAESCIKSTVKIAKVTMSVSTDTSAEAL
Protocol: (§1) The affinity of the compounds of the invention for cannabinoid receptors was determined using membrane preparations of human embryonic kidney (HEK) cells in which the human CB1 receptor is transiently transfected using a Semliki Forest Virus system in conjunction with [3H]-CP-55,940 as radioligand. After incubation of freshly prepared cell membrane preparation with the [^3H]-ligand, with or without addition of compounds of the invention, separation of bound and free ligand was performed by filtration over glass fiber filters. Radioactivity on the filter was measured by scintillation counting.
(§2) The ability of the compounds to displace the radioligand [^3H]-CP-55,940 was measured at a concentration of 10 μM and values provided as [% inhibition @ 10 μM] both for the CB 1 and CB2 receptor assay, The lower % inhibition is, the lower the likelihood of side effects based on CB1 or CB2 receptor inhibition is.

human CB2 receptor = molecular target: T2, human CB2 receptor (Homo sapiens, UniProt P34972); experiment: CB2 receptor affinity ([3H]-CP-55,940 displacement); assay type: binding; conditions: HEK cell membranes, radioligand [3H]-CP-55,940
T2 construct: expressed in transfected cells; host or cells: human embryonic kidney (HEK) cells, Semliki Forest Virus system, membrane preparation
T2 sequence (P34972 whole entry): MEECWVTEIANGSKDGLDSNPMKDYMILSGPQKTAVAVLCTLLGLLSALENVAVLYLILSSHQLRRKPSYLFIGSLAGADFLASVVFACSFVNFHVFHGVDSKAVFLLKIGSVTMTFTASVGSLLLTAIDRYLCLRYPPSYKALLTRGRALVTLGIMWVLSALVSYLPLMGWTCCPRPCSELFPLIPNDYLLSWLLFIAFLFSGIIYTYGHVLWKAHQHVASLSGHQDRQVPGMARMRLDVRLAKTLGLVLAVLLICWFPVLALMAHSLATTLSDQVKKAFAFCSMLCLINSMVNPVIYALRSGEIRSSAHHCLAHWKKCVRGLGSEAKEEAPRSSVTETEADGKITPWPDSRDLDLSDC
Protocol: as §1, with “cannabinoid CB2” for “cannabinoid”, “CB2” for “CB1”, “[^3H]-CP-55,940” for “[3H]-CP-55,940”
as §2

[1] = 10 μM, HEK cell membranes, radioligand [3H]-CP-55,940

Compound: CO/N=C1\CCCC[C@@H]1NC(=O)c1cnc(OCC2CC2)c(-c2ccc(Cl)cc2)c1 [Example 1, 5-(4-Chloro-phenyl)-6-cyclopropylmethoxy-N-{(S)-2-[(E)-methoxyimino]-cyclohexyl}-nicotinamide]
EC50 (ABCA1 protein): 0.7 µM | % increase of ABCA1 at 3 μM (ABCA1 protein): 87.2% @ 3 μM | inhibition at 10 µM (human CB1 receptor): 34% | inhibition at 10 µM (human CB2 receptor): 17.2%

Compound: CO/N=C1\CCCC[C@@H]1NC(=O)c1cnc(OCC(F)(F)F)c(-c2ccc(Cl)c(Cl)c2)c1 [Example 7, 5-(3,4-Dichloro-phenyl)-N-{(S)-2-[(E)-methoxyimino]-cyclohexyl}-6-(2,2,2-trifluoro-ethoxy)-nicotinamide]
EC50 (ABCA1 protein): 4.72 µM | % increase of ABCA1 at 3 μM (ABCA1 protein): 84.6% @ 3 μM | inhibition at 10 µM (human CB1 receptor): 10.5% | inhibition at 10 µM (human CB2 receptor): 3.56%

Compound: CO/N=C1\CCCC[C@H]1NC(=O)c1cnc(OCC(F)(F)F)c(-c2ccc(Cl)c(Cl)c2)c1 [Example 8, 5-(3,4-Dichloro-phenyl)-N-{(R)-2-[(E)-methoxyimino]-cyclohexyl}-6-(2,2,2-trifluoro-ethoxy)-nicotinamide]
EC50 (ABCA1 protein): 0.81 µM | % increase of ABCA1 at 3 μM (ABCA1 protein): 63% @ 3 μM | inhibition at 10 µM (human CB1 receptor): 35.2% | inhibition at 10 µM (human CB2 receptor): 13.1%

Compound: O=C(NC/C(=N/O)C1CC1)c1cnc(OCC(F)(F)F)c(-c2ccc(Cl)c(Cl)c2)c1 [Example 11, N-(E)-(2-Cyclopropyl-2-hydroxyimino-ethyl)-5-(3,4-dichloro-phenyl)-6-(2,2,2-trifluoro-ethoxy)-nicotinamide]
% increase of ABCA1 at 3 μM (ABCA1 protein): 55.9% @ 3 μM | inhibition at 10 µM (human CB1 receptor; [1]): 30% | inhibition at 10 µM (human CB2 receptor): 44.3%

Compound: CO/N=C(/CNC(=O)c1cnc(OCC(F)(F)F)c(-c2ccc(Cl)c(Cl)c2)c1)C1CC1 [Example 12, N-{2-Cyclopropyl-2-[(E)-methoxyimino]-ethyl}-5-(3,4-dichloro-phenyl)-6-(2,2,2-trifluoro-ethoxy)-nicotinamide]
% increase of ABCA1 at 3 μM (ABCA1 protein): 88.4% @ 3 μM | inhibition at 10 µM (human CB1 receptor; [1]): 26.8% | inhibition at 10 µM (human CB2 receptor): 47.7%

Compound: CO/N=C(\CNC(=O)c1cnc(OCC(F)(F)F)c(-c2ccc(Cl)cc2)c1)C1CC1 [Example 13, 5-(4-Chloro-phenyl)-N-{2-cyclopropyl-2-[(Z)-methoxyimino]-ethyl}-6-(2,2,2-trifluoro-ethoxy)-nicotinamide]
% increase of ABCA1 at 3 μM (ABCA1 protein): 66.2% @ 3 μM | inhibition at 10 µM (human CB1 receptor; [1]): 48.6% | inhibition at 10 µM (human CB2 receptor): 1.52%

Compound: CO/N=C(/CNC(=O)c1cnc(OCC(F)(F)F)c(-c2ccc(Cl)cc2)c1)C1CC1 [Example 14, 5-(4-Chloro-phenyl)-N-{2-cyclopropyl-2-[(E)-methoxyimino]-ethyl}-6-(2,2,2-trifluoro-ethoxy)-nicotinamide]
% increase of ABCA1 at 3 μM (ABCA1 protein): 157.2% @ 3 μM | inhibition at 10 µM (human CB1 receptor; [1]): 48.2% | inhibition at 10 µM (human CB2 receptor): 20.9%

Compound: CO/N=C(\CNC(=O)c1ncc(OCC2CC2)c(-c2ccc(Cl)cc2)n1)C1CC1 [Example 19, 4-(4-Chloro-phenyl)-5-cyclopropylmethoxy-pyrimidine-2-carboxylic acid {2-cyclopropyl-2-[(Z)-methoxyimino]-ethyl}-amide]
% increase of ABCA1 at 3 μM (ABCA1 protein): 84.2% @ 3 μM | inhibition at 10 µM (human CB1 receptor; [1]): 28% | inhibition at 10 µM (human CB2 receptor): 63.8%

Second part, led by results:

inhibition at 10 µM (human CB1 receptor; [1]): 30.8% | inhibition at 10 µM (human CB2 receptor): 3.53%
Compound: CO/N=C1\CCCC[C@@H]1NC(=O)c1cnc(OCC(F)(F)F)c(-c2ccc(Cl)cc2)c1 [Example 2, 5-(4-Chloro-phenyl)-N-{(S)-2-[(E)-methoxyimino]-cyclohexyl}-6-(2,2,2-trifluoro-ethoxy)-nicotinamide]
EC50 (ABCA1 protein): 1.82 µM | % increase of ABCA1 at 3 μM (ABCA1 protein): 88.3% @ 3 μM

inhibition at 10 µM (human CB1 receptor; [1]): 45.7% | inhibition at 10 µM (human CB2 receptor): 6.86%
Compound: CC(C)O/N=C1\CCCC[C@@H]1NC(=O)c1cnc(OCC2CC2)c(-c2ccc(Cl)cc2)c1 [Example 3, 5-(4-Chloro-phenyl)-6-cyclopropylmethoxy-N-{(S)-2-[(E)-isopropoxyimino]-cyclohexyl}-nicotinamide]
% increase of ABCA1 at 3 μM (ABCA1 protein): 66.4% @ 3 μM

inhibition at 10 µM (human CB1 receptor; [1]): 48.5% | inhibition at 10 µM (human CB2 receptor): 8.91%
Compound: O=C(N[C@H]1CCCC/C1=N\OCC(F)(F)F)c1cnc(OCC2CC2)c(-c2ccc(Cl)cc2)c1 [Example 4, 5-(4-Chloro-phenyl)-6-cyclopropylmethoxy-N-{(S)-2-[(E)-2,2,2-trifluoro-ethoxyimino]-cyclohexyl}-nicotinamide]
% increase of ABCA1 at 3 μM (ABCA1 protein): 90.4% @ 3 μM

inhibition at 10 µM (human CB1 receptor; [1]): 33.1% | inhibition at 10 µM (human CB2 receptor): 15.1%
Compound: NC(=O)CO/N=C1\CCCC[C@@H]1NC(=O)c1cnc(OCC2CC2)c(-c2ccc(Cl)cc2)c1 [Example 5, N-{(S)-2-[(E)-Carbamoylmethoxyimino]-cyclohexyl}-5-(4-chloro-phenyl)-6-cyclopropylmethoxy-nicotinamide]
EC50 (ABCA1 protein): 2.02 µM | % increase of ABCA1 at 3 μM (ABCA1 protein): 65.2% @ 3 μM

inhibition at 10 µM (human CB1 receptor; [1]): 36.7% | inhibition at 10 µM (human CB2 receptor): 19.2%
Compound: COCO/N=C1\CCCC[C@@H]1NC(=O)c1cnc(OCC2CC2)c(-c2ccc(Cl)cc2)c1 [Example 6, 5-(4-Chloro-phenyl)-6-cyclopropylmethoxy-N-{(S)-2-[(E)-methoxymethoxyimino]-cyclohexyl}-nicotinamide]
% increase of ABCA1 at 3 μM (ABCA1 protein): 71.9% @ 3 μM

inhibition at 10 µM (human CB1 receptor; [1]): 15.9% | inhibition at 10 µM (human CB2 receptor): 37.6%
Compound: CO/N=C1\CCCC[C@@H]1NC(=O)c1cc(-c2ccc(Cl)cc2)c(OCC(F)(F)F)cn1 [Example 9, 4-(4-Chloro-phenyl)-5-(2,2,2-trifluoro-ethoxy)-pyridine-2-carboxylic acid {(S)-2-[(E)-methoxyimino]-cyclohexyl}-amide]
% increase of ABCA1 at 3 μM (ABCA1 protein): 71.7% @ 3 μM

inhibition at 10 µM (human CB1 receptor; [1]): 0.74% | inhibition at 10 µM (human CB2 receptor): 19.2%
Compound: CO/N=C1\CCCC[C@@H]1NC(=O)c1ccc(OCC(F)(F)F)c(-c2ccc(Cl)cc2)n1 [Example 10, 6-(4-Chloro-phenyl)-5-(2,2,2-trifluoro-ethoxy)-pyridine-2-carboxylic acid {(S)-2-[(E)-methoxyimino]-cyclohexyl}-amide]
EC50 (ABCA1 protein): 1.53 µM | % increase of ABCA1 at 3 μM (ABCA1 protein): 45.6% @ 3 μM

inhibition at 10 µM (human CB1 receptor; [1]): 25.4% | inhibition at 10 µM (human CB2 receptor): 16.6%
Compound: CO/N=C1\CCCC[C@H]1NC(=O)c1cc(-c2ccc(Cl)cc2)c(OCC(F)(F)F)nn1 [Example 16, 5-(4-Chloro-phenyl)-6-(2,2,2-trifluoro-ethoxy)-pyridazine-3-carboxylic acid {(R)-2-[(E)-methoxyimino]-cyclohexyl}-amide]
EC50 (ABCA1 protein): 10 µM | % increase of ABCA1 at 3 μM (ABCA1 protein): 55.3% @ 3 μM

inhibition at 10 µM (human CB1 receptor; [1]): 16.6% | inhibition at 10 µM (human CB2 receptor): 13.6%
Compound: CO/N=C1\CCCC[C@@H]1NC(=O)c1cc(-c2ccc(Cl)cc2)c(OCC(F)(F)F)nn1 [Example 17, 5-(4-Chloro-phenyl)-6-(2,2,2-trifluoro-ethoxy)-pyridazine-3-carboxylic acid {(S)-2-[(E)-methoxyimino]-cyclohexyl}-amide]
EC50 (ABCA1 protein): 2.63 µM | % increase of ABCA1 at 3 μM (ABCA1 protein): 76.5% @ 3 μM

inhibition at 10 µM (human CB1 receptor; [1]): 26.9% | inhibition at 10 µM (human CB2 receptor): 32.5%
Compound: CO/N=C1\CCCC[C@@H]1NC(=O)c1cc(-c2ccc(Cl)cc2)c(OCC2CC2)nn1 [Example 18, 5-(4-Chloro-phenyl)-6-cyclopropylmethoxy-pyridazine-3-carboxylic acid {(S)-2-[(E)-methoxyimino]-cyclohexyl}-amide]
EC50 (ABCA1 protein): 4.99 µM | % increase of ABCA1 at 3 μM (ABCA1 protein): 57.3% @ 3 μM
